Structures can show the parent of a compound that is named as a salt. Where two headings read alike, the source gives them in different places. A value given as a limit tells only on which side of the number the result lay.

In assay [1] the test system is MCF-7 CCT (cancer cell tubulin). Description: Fluorescence (DAPI) tubulin polymerization microassay, MCF-7 cancer cell tubulin. Conditions: BBT EC50 divided by MCF-7 CCT EC50.
Description: Compounds were assayed in the standard glycerol containing (vinblastine and colchicine) or no glycerol containing (paclitaxel) formats. […] Twenty four micrograms of CCT in G-PEM with 10 uM DAPI plus glycerol (colchicine and vinblastine) or minus glycerol (paclitaxel) at 4° C. was pipetted into wells of the 384-well plate which contained 1.3 ul of 10× strength compound concentration and incubated at 37° C. Tubulin polymerization was detected by measuring the fluorescence of the solution (Ex 360 nm, Em 405 nm) over time. Each set of data, A through I, represents six duplicate polymerization assays from one experiment, the duplicates contain either a 20% glycerol control or one of five compound concentrations (0.1, 0.3, 1.0, 3.0 or 10 uM). Paclitaxel experiments were repeated n=3 for neuronal, n=5 for HeLa and n=2 for MCF-7. Vinblastine experiments were repeated n=2 for neuronal, n=5 for HeLa and n=2 for MCF-7. Colchicine experiments were repeated n=2 for neuronal, HeLa and MCF-7. […]
Using the conditions described in FIG. 9, we measured eleven taxol analogs against BBT and MCF-7 CCT. TLI's were calculated by the method described in FIG. 11. […]
A fluorescent plate reader is tuned to 360 nm excitation wavelength and 405 to 475 nm emission wavelength, a 384 well plate was placed into the machine and it was pre-warmed to 37° C.
In assay [2] the test system is HeLa CCT (cancer cell tubulin). Nature of the assay: Fluorescence (DAPI) tubulin polymerization microassay, HeLa cancer cell tubulin. Format: biochemical. The conditions noted are these: for Tubulin Ligand Index (TLI) ratio, HeLa: BBT EC50 divided by HeLa CCT EC50; for EC50: 2 mg/ml tubulin, enhancer format without glycerol, 50% of 20% glycerol control Vmax, read-out: EC50 using HeLa CCT. From the text: (§1) A plot of log10 of concentration (X-axis) and Percent Vmax (control) (Y-axis) is made for each compound.

Assay [3] deals with Bovine brain tubulin (mainly isotypes βII and βIII). The conditions noted are these: cited from earlier work.
Assay [4] concerns Bovine brain tubulin (BBT, neuronal tubulin). Description: Fluorescence (DAPI) tubulin polymerization microassay, bovine brain tubulin. The assay is classed as biochemical. The conditions noted are these: 2 mg/ml tubulin, enhancer format without glycerol; 50% of 20% glycerol control Vmax; read-out: EC50 using neuronal tubulin.
Text: as §1

In assay [5] the test system is HeLa CCT (cancer cell tubulin). Conditions: BBT IC50 divided by HeLa CCT IC50; IC50 estimated from 50% intercept of dose response curve; cited from earlier work.

As for `CC(=O)O[C@@]12CO[C@@H]1C[C@H](O)[C@@]1(C)C(=O)[C@H](O)C3=C(C)[C@@H](O)C[C@@](O)([C@@H](OC(=O)c4ccccc4)[C@H]21)C3(C)C` [10-Deacetyl-baccatin-III], the “Tubulin Ligand Index (TLI) ratio, MCF-7” value in assay [1] is listed as 0.28. Further, in assay [2], the “Tubulin Ligand Index (TLI) ratio, HeLa” value is listed as below 0.01.

Turning to `N=C(N)c1ccc(-c2cc3ccc(C(=N)N)cc3[nH]2)cc1` [DAPI, 4′, 6-diamidino-2-phenylindole-HCl], the dissociation constant Kd was 43000 nM in assay [3] (bovine brain tubulin in the monomer form, read-out: Kd (affinity constant) for DAPI, monomer form) and 6000 nM in assay [3] (bovine brain tubulin in the polymer form, read-out: Kd (affinity constant) for DAPI, polymer form).

`CC(=O)O[C@@]12CO[C@@H]1C[C@H](O)[C@@]1(C)C(=O)[C@H](O)C3=C(C)[C@@H](OC(=O)[C@H](O)[C@@H](NC(=O)OC(C)(C)C)c4ccccc4)C[C@@](O)([C@@H](OC(=O)c4ccccc4)[C@H]21)C3(C)C` [docetaxel]: the concentration for a half-maximal effect (EC50) in assay [4] was 140 nM. Moreover, in assay [2], the EC50 was 150 nM and the “Tubulin Ligand Index (TLI) ratio, HeLa” value was 0.93.

`CC(=O)O[C@H]1C(=O)[C@@]2(C)[C@H]([C@H](OC(=O)c3ccccc3)[C@]3(O)C[C@H](OC(=O)[C@H](O)[C@@H](NC(=O)c4ccccc4)c4ccccc4)C(C)=C1C3(C)C)[C@]1(OC(C)=O)CO[C@@H]1C[C@@H]2O` [paclitaxel]: the results for the EC50 in assay [4] and in assay [2] were 150 nM and 790 nM, respectively.

As to `CC[C@]1(O)C[C@@H]2CN(CCc3c([nH]c4ccccc34)[C@@](C(=O)OC)(c3cc4c(cc3OC)N(C)[C@H]3[C@@](O)(C(=O)OC)[C@H](OC(C)=O)[C@]5(CC)C=CCN6CC[C@]43[C@@H]65)C2)C1` [vinblastine], the “Tubulin Ligand Index (TLI), BBT vs HeLa CCT, measured by Zentaris GmbH” value in assay [5] is given as 1.0.

Regarding Disorazol E1, in assay [5], the “Tubulin Ligand Index (TLI), BBT vs HeLa CCT, measured by Zentaris GmbH” value was 2.0.

By Kd is commonly meant a measure of binding affinity in units of concentration. For orientation: EC50 means the concentration giving half of the maximal effect.

These data come from patent publication US20060008864A1, “Methods to measure compound specificity” (priority 2004, published 2006).
